In patent US20080306102A1, “NOVEL SPIROOXYINDOLE COMPOUNDS AND DRUGS CONTAINING SAME” (KOWA CO., LTD., priority 2007, published 2008):
Like-named read-outs stand apart in the source and are kept apart here.

What was measured:
human 11β-HSD1 = target: T1, human 11β-HSD1 (Homo sapiens, UniProt P28845); assay: Human 11β-HSD1 enzyme inhibitory activity (lysate of stably expressing HEK293 cells, cortisol by competitive ELISA); assay type: biochemical
T1 construct: expressed in transfected cells; sonicated cell suspension used as lysate
Experimental: (§1) Human 11β-HSD1-, human 11β-HSD2-Gene Clonings and Establishment of Stably Expressing Cells
(§2) Human 11β-HSD1- and human 11β-HSD2-gene clonings were conducted using as a template a reverse transcription product of human-liver RNA and human-kidney RNA (CELL APPLICATIONS) respectively, by means of PCR cloning with reference to nucleotide sequences of Genbank Accession No. NM_00.5525 and NM 000196. The obtained PCR products of about 0.9 kbp and 1.2 kbp were subcloned into an expression vector pcDNA3.1+/Zeo (Invitrogen).
(§3) Human 11β-HSD1- and human 11β-HSD2-expressing vectors were transfected into human kidney-derived cell line, HEK293 cells, using a transfection reagent, jet PEI (Funakoshi). Selection was conducted with 400 μg/mL of zeocine (Invitrogen) to provide stably-expressing-cell clones. The stably expressing cells were suspended in buffer solution A (20 mmol/L Tris-HCl, pH 7.4, 250 mmol/L sucrose, 1 mmol/L EGTA, 1 mmol/L EDTA, 1 mmol/L MgCl2), sonicated, and then stored at −80° C.
(§4) An enzymatic reaction was conducted using a polystyrene 96-well plate. Each well was added with 1 μL of a test agent dissolved in DMSO and then diluted (0.003 to 3 mmol/L), and further added with 10 μL of cell lysate diluted to a concentration of 0.1 mg/mL to 0.4 mg/mL. Next, 90 μL of buffer solution A containing substrate (100 nmol/L cortisone) and coenzyme (400 μmol/L NADPH) was added and the mixture was incubated at 37° C. for 1 hour. The enzymatic reaction was stopped by treating at 95° C. for 3 minutes. Cortisol that was present in the reaction solution was determined by a competitive ELISA shown below.
Anti-rabbit IgG antibody (Chemi-con) diluted to 2 μg/mL with carbonate buffer solution (pH 9.6) was added in 100 μL each to a 96-well immuno plate (Nunc) and immobilized by incubating at 4° C. overnight. 50 μL of enzymatic reaction solution was put onto the plates, and further, anti-cortisol antibody (Cosmo Bio) and HRP-labeled cortisol (Cosmo Bio), diluted with buffer solution B (25 mmol/L Tris-HCl pH 7.4, 137 mmol/L NaCl, 2.68 mmol/L KCl), were added in 50 μL respectively and incubated at 4° C. overnight. After washed three times with buffer solution B containing 0.05% Tween 20, the plates were allowed to develop color by adding 100 μL of color reagent, TMB (Moss). The color reaction was stopped by 25 μL of 1 mol/L sulfuric acid and the absorbance was determined at 450 nm with a microplate reader (Molecular Device, VersaMax).
The values of human 11β-HSD1 and human 11β-HSD2 activities were subtracted from 100, and the resultant values were regarded as the respective 11β-HSD inhibition rates of example compounds. For each example compound, the value of 50% inhibitory concentration (IC50) was calculated from 11β-HSD inhibition rates at plural concentrations, for 11β-HSD1 and 11β-HSD2 activities.

human 11β-HSD2 = target: T2, human 11β-HSD2 (Homo sapiens, UniProt P80365); assay: Human 11β-HSD2 enzyme inhibitory activity (lysate of stably expressing HEK293 cells, cortisol by competitive ELISA); assay type: biochemical; conditions: human 11β-HSD2, HEK293 cell lysate, 37° C. 1 hour
T2 construct: expressed in transfected cells; sonicated cell suspension used as lysate
T2 sequence (P80365 1-405): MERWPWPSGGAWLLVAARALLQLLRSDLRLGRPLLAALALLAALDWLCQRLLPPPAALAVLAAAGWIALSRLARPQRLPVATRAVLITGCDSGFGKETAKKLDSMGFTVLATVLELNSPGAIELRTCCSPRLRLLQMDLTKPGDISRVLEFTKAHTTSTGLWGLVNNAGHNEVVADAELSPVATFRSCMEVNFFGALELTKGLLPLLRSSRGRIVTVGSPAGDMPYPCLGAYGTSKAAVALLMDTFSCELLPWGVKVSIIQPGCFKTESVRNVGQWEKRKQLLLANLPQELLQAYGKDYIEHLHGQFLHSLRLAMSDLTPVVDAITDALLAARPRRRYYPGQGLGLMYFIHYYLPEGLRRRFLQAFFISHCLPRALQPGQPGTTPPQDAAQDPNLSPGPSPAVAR
Experimental: as §1, §2, §3, §4
Anti-rabbit IgG antibody (Chemi-con) diluted to 2 μg/mL with carbonate buffer solution (pH 9.6) was added in 100 μL each to a 96-well immuno plate (Nunc) and immobilized by incubating at 4° C. overnight. […] The color reaction was stopped by 25 μL of 1 mol/L sulfuric acid and the absorbance was determined at 450 nm with a microplate reader (Molecular Device, VersaMax). […]

[1] = human 11β-HSD1, HEK293 cell lysate, 100 nmol/L cortisone, 400 μmol/L NADPH, 37° C. 1 hour, read-out: IC50(μM) HSD1

T1 sequence (P28845 whole entry): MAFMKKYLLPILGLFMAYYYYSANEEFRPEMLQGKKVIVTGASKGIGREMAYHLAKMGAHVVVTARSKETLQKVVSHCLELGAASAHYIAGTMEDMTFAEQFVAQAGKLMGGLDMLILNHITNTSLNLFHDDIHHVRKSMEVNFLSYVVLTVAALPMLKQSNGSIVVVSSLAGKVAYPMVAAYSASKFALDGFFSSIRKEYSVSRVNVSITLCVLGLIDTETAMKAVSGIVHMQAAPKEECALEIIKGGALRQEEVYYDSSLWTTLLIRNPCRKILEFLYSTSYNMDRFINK

Structure (SMILES) | IC50 (human 11β-HSD1; [1]) | IC50 (human 11β-HSD2) | IC50 (human 11β-HSD1; compound A actually synthesized and measured by the applicant, read-out: 50% inhibitory concentration (IC50) for 11β-HSD1 activity)
CN1C(=O)C2(CCN(C(=O)COc3ccccc3C(F)(F)F)CC2)c2ccccc21 [Example 76, 1-methyl-1′-{2-(2-trifluoromethylphenoxy)acetyl}spiro(indole-3,4′-piperidine)-2-one] | 0.068 µM | > 30 µM | –
CCN1C(=O)C2(CCN(C(=O)COc3ccccc3C(F)(F)F)CC2)c2ccccc21 [Example 80, 1-ethyl-1′-{2-(2-trifluoromethylphenoxy)acetyl}spiro(indole-3,4′-piperidine)-2-one] | 0.67 µM | – | –
O=C(COc1ccccc1[N+](=O)[O-])N1CCC2(CC1)C(=O)Nc1ccccc12 [Example 12, 1′-{2-(2-nitrophenoxy)acetyl}spiro(indole-3,4′-piperidine)-2(1H)-one] | 1 µM | – | –
O=C(COc1ccccc1C(F)(F)F)N1CCC2(CC1)C(=O)Nc1ccccc12 [Example 1, 1′-{2-(2-trifluoromethylphenoxy)acetyl}spiro(indole-3,4′-piperidine)-2(1H)-one] | 0.033 µM | – | –
O=C(N1CCC2(CC1)C(=O)Nc1ccccc12)C1(c2ccc(Cl)cc2)CC1 [compound A, 1′-{[1-(4-Chlorophenyl)cyclopropyl]carbonyl}spiro[indole-3, 4′-piperidin]-2(1H)-one, reference compound] | – | – | 3 µM
CCCN1C(=O)C2(CCN(C(=O)COc3ccccc3C(F)(F)F)CC2)c2ccccc21 [Example 81, 1-propyl-1′-{2-(2-trifluoromethylphenoxy)acetyl}spiro(indole-3,4′-piperidine)-2-one] | 0.43 µM | – | –
O=C(COc1ccccc1Br)N1CCC2(CC1)C(=O)Nc1ccccc12 [Example 49] | 0.41 µM | > 30 µM | –
O=C(COc1ccccc1I)N1CCC2(CC1)C(=O)Nc1ccccc12 [Example 10, 1′-{2-(2-iodophenoxy)acetyl}spiro(indole-3,4′-piperdine)-2 (1H)-one] | 0.087 µM | > 30 µM | –
Cc1ccccc1OCC(=O)N1CCC2(CC1)C(=O)Nc1ccccc12 [Example 2, 1′-{2-(2-methylphenoxy)acetyl}spiro(indole-3,4′-piperidine)-2(1H)-one] | 0.82 µM | – | –
CC(C)(C)c1ccccc1OCC(=O)N1CCC2(CC1)C(=O)Nc1ccccc12 [Example 52, 1′-{2-(2-t-butylphenoxy)acetyl}spiro(indole-3,4′-piperidine)-2(1H)-one] | 0.73 µM | – | –
O=C(COc1ccccc1C(F)(F)F)N1CCC2(CC1)C(=O)N(C1CC1)c1ccccc12 [Example 84, 1-cyclopropyl-1′-{2-(2-trifluoromethylphenoxy)acetyl}spiro(indole-3,4′-piperidine)-2-one] | 0.72 µM | – | –
O=C(COc1cccc(Cl)c1Cl)N1CCC2(CC1)C(=O)Nc1ccccc12 [Example 40, 1′-{2-(2,3-dichlorophenoxy)acetyl}spiro(indole-3,4′-piperidine)-2(1H)-one] | 0.96 µM | – | –
O=C(CSc1ccccc1C(F)(F)F)N1CCC2(CC1)C(=O)Nc1ccccc12 [Example 70, 1′-{2-(2-trifluoromethylphenylthio)acetyl}spiro(indole-3,4′-piperidine)-2(1H)-one] | 0.16 µM | – | –
